Test results reported in PMC11025159 (Journal of Translational Medicine, 2024).
Several values for one entry are separate records, joined by “and”; a condition that tells them apart may be missing. Equal entries are not always repeated. Structures can show the parent of a compound that is named as a salt.

Key:
DHT-induced AGA mice = assay: Hair regrowth in DHT-induced AGA mice model (topical, 28 days); format: in vivo, C57BL/6J mice
Method: (§1) C57BL/6 J mice (male) were obtained from CSIR-IIIM Animal House at 7 weeks of age. We used a DHT-induced AGA mice model for this study. […] At the end of the experiment, skin samples were collected and preserved in 10% neutral buffered formalin for tissue sectioning and staining using haematoxylin and eosin (H&E). The histopathological examinations were performed under the 10× and 40× objectives of light microscope (Magnus, Mx21i).
Dorsal skin samples from C57BL/6J mice were shaved and collected for histological and molecular analyses on Days 7, 14, 21, and 28. The full-thickness skin tissue was fixed in a 10% neutral buffered formalin solution (Sigma) overnight and subsequently dehydrated for embedding in paraffin. Haematoxylin and eosin (H&E) staining was performed on the skin tissue, and digital photomicrographs were taken from the representative areas using light microscope (Magnus, Mx21i).
The quantification of anagen initiation was assessed by observing changes in the dorsal skin colour of C57BL/6 mice, a phenomenon closely linked to the onset of the anagen phase. Anagen quantification was done by employing threshold analysis on dorsal skin colouration using ImageJ. The darkening of the skin, attributed to melanogenesis, strongly correlates with the progression of anagen. This analysis is visually depicted as a heatmap using GraphPad Prism 9.5 Software.

[1] = Body weight, biochemical and haematological parameters in DHT-induced AGA mice (0.5% testosterone then topical treatment); format: in vivo, C57BL/6J mice; settings: for LYMPH: unit assumed
Method: The experiments were performed on C57BL/6 J and Athymic nude mice (NU/J Foxn1^nu) of 6–7 weeks of age obtained from Animal House Facility, CSIR-Indian Institute of Integrative Medicine (IIIM), Jammu, India. […] The animals were provided with ad libitum feed (standard pellet diet) and autoclaved RO water throughout the study. The body weight of mice was measured after seven days before treatment.
as §1
Every two weeks during the experimental period, mice were anesthetized, and the blood samples were collected into tubes containing heparin sodium to detect the total and differential white blood cells, haemoglobin, red blood cell, platelet count, mean corpuscular haemoglobin, mean corpuscular volume, red blood cell volume, mean platelet volume, and analyzed using an automated haematology analyzer (Model: XT1800i; Make: Sysmex).
Every two weeks during the experimental period, mice and rats were anesthetized, and blood samples were collected into non-heparinized tubes and then centrifuged at 1000 rpm at 4 °C for 10 min to obtain the serum. The biochemical parameters, including total protein, aspartate aminotransferase, alanine aminotransferase, total protein, albumin, total bilirubin, direct bilirubin, glucose, total cholesterol, triglyceride, low-density lipoprotein, high-density lipoprotein, creatinine, and uric acid, were measured using an automatic biochemical analyzer (Model: EM360; Make: Erba Mannheim).

[2] = tested on: athymic nude mice (NU/J Foxn1nu); assay: Hair growth in athymic nude mice (topical, 28 days); format: in vivo; settings: for H&E skin histopathology finding / hair follicle grade: day 28
Method: (§2) The groups are as follows: Group 1-Control (untreated), Group 2-Vehicle control, Group 3-tofacitinib citrate (0.8 mg/Kg), Group 4-tofacitinib citrate (0.08 mg/Kg), Group 5-MJ04 (0.08 mg/Kg), Group 6-MJ04 (0.04 mg/Kg), Group 7-MJ04 (0.016 mg/Kg), Group 8-baricitinib (0.1 mg/Kg), Group 9-baricitinib (0.04 mg/Kg), and Group 10-baricitinib (0.02 mg/Kg). At the end of the experiment, skin samples were collected and preserved in 10% neutral buffered formalin for tissue sectioning and staining using haematoxylin and eosin (H&E). The histopathological examinations were performed under the 10× and 40× objectives of light microscope (Magnus, Mx21i), and hair follicles were graded on a scale of 0 to 4 (++++).
The skin samples collected from athymic nude mice (NU/J Foxn1^nu) were preserved in 10% neutral buffered formalin and processed for tissue sectioning. The skin sections (10 µm) of nude mice were stained using haematoxylin and eosin (H&E) and viewed under 10× and 40× objectives of the light microscope (Magnus, Mx21i). The histopathological examination of the samples was performed, and the hair follicles in the skin sections were graded on a scale of 0 to 4 (++++).

[3] = Body weight of athymic nude mice during topical treatment; format: in vivo, athymic nude mice (NU/J Foxn1nu); settings: individual mice
Method: as §2, with “. The” for “The”, “The histopathological examinations were performed under the 10× and 40× objectives of light microscope (Magnus, Mx21i), and hair follicles were graded on a scale of 0 to 4 (++++).” left out

For `C[C@@H]1CCN(C(=O)CC#N)C[C@@H]1N(C)c1ncnc2[nH]ccc12` [Tofacitinib, tofacitinib citrate, reference compound], the “H&E skin histopathology finding” value (DHT-induced AGA mice; 0.08mg/kg, Days 7, 14, 21, 28) was “Minimal epidermal thinning with few hair follicles on Days 7 and 14 and increased hair follicles on Days 21 and 28”, the “hair follicle phase (histopathology)” value (DHT-induced AGA mice; skin samples days 7, 14, 21, 28) was “at least in the anagen IIIc-IV phase” and the “entry into the anagen phase” value (DHT-induced AGA mice; topical once a day in presence of testosterone) was “rapid entry into the anagen phase within seven days of treatment”. For the same compound, the “mice displaying intense skin darkening followed by hair growth” value (DHT-induced AGA mice; within 10 days of treatment) was “around 90%”, the ALP ([1]; Day 21, 0.08 mg/Kg) was 198 U/L and the ALT/SGPT ([1]; Day 21, 0.08 mg/Kg) was 82 U/L. It also gave an AST/SGOT ([1]; Day 21, 0.08 mg/Kg) of 80 U/L, a Cholesterol ([1]; Day 21, 0.08 mg/Kg) of 216 mg/dL and a Creatine ([1]; Day 21, 0.08 mg/Kg) of 0.49 mg/dL. For the same compound, the HCT ([1]; Day 21, 0.08 mg/Kg) was 45%, the HDL ([1]; Day 21, 0.08 mg/Kg) was 110 mg/dL and the LDL ([1]; Day 21, 0.08 mg/Kg) was 134 mg/dL. It also gave an MCHC ([1]; Day 21, 0.08 mg/Kg) of 28 g/dL, an MCV ([1]; Day 21, 0.08 mg/Kg) of 51 fL and an NEUT ([1]; Day 21, 0.08 mg/Kg) of 20.2%. For the same compound, the PLT ([1]; Day 21, 0.08 mg/Kg) was 587 103/μl, the RBC ([1]; Day 21, 0.08 mg/Kg) was 9.2 1012/l and the Total protein ([1]; Day 21, 0.08 mg/Kg) was 5.0 g/dL. For the same compound, the Triglyceride ([1]; Day 21, 0.08 mg/Kg) was 141 mg/dL, the Urea ([1]; Day 21, 0.08 mg/Kg) was 49 mg/dL and the WBC ([1]; Day 21, 0.08 mg/Kg) was 3.0 103/μl. The LYMPH ([1]; Day 21, 0.08 mg/Kg) was 78.8%, the ALP ([1]; Day 21, 0.8 mg/Kg) was 132 U/L and the ALT/SGPT ([1]; Day 21, 0.8 mg/Kg) was 56 U/L. For the same compound, the AST/SGOT ([1]; Day 21, 0.8 mg/Kg) was 111 U/L, the Cholesterol ([1]; Day 21, 0.8 mg/Kg) was 211 mg/dL and the Creatine ([1]; Day 21, 0.8 mg/Kg) was 0.63 mg/dL. The HCT ([1]; Day 21, 0.8 mg/Kg) was 42%, the HDL ([1]; Day 21, 0.8 mg/Kg) was 116 mg/dL and the LDL ([1]; Day 21, 0.8 mg/Kg) was 126 mg/dL. For the same compound, the MCHC ([1]; Day 21, 0.8 mg/Kg) was 29 g/dL, the MCV ([1]; Day 21, 0.8 mg/Kg) was 52 fL and the NEUT ([1]; Day 21, 0.8 mg/Kg) was 21.5%. The PLT ([1]; Day 21, 0.8 mg/Kg) was 917 103/μl, the RBC ([1]; Day 21, 0.8 mg/Kg) was 8.1 1012/l and the Total protein ([1]; Day 21, 0.8 mg/Kg) was 5.2 g/dL. For the same compound, the Triglyceride ([1]; Day 21, 0.8 mg/Kg) was 118 mg/dL, the Urea ([1]; Day 21, 0.8 mg/Kg) was 71 mg/dL and the WBC ([1]; Day 21, 0.8 mg/Kg) was 1.7 103/μl. For the same compound, the LYMPH ([1]; Day 21, 0.8 mg/Kg) was 77.9%, the ALP ([1]; Day 28, 0.08 mg/Kg) was 199 U/L and the ALT/SGPT ([1]; Day 28, 0.08 mg/Kg) was 177 U/L. For the same compound, the AST/SGOT ([1]; Day 28, 0.08 mg/Kg) was 136 U/L, the Cholesterol ([1]; Day 28, 0.08 mg/Kg) was 238 mg/dL and the Creatine ([1]; Day 28, 0.08 mg/Kg) was 0.13 mg/dL. For the same compound, the HCT ([1]; Day 28, 0.08 mg/Kg) was 47.0%, the HDL ([1]; Day 28, 0.08 mg/Kg) was 133 mg/dL and the HGB ([1]; Day 28, 0.08 mg/Kg) was 14 g/dL. For the same compound, the LDL ([1]; Day 28, 0.08 mg/Kg) was 111 mg/dL, the MCHC ([1]; Day 28, 0.08 mg/Kg) was 29.0 g/dL and the MCV ([1]; Day 28, 0.08 mg/Kg) was 58.0 fL. The PLT ([1]; Day 28, 0.08 mg/Kg) was 1475 103/μl, the RBC ([1]; Day 28, 0.08 mg/Kg) was 8.1 106/μl and the Total protein ([1]; Day 28, 0.08 mg/Kg) was 6.5 g/dL. The Triglyceride ([1]; Day 28, 0.08 mg/Kg) was 135 mg/dL, the Urea ([1]; Day 28, 0.08 mg/Kg) was 62 mg/dL and the WBC ([1]; Day 28, 0.08 mg/Kg) was 6.7 103/μl. The ALP ([1]; Day 28, 0.8 mg/Kg) was 252 U/L, the ALT/SGPT ([1]; Day 28, 0.8 mg/Kg) was 134 U/L and the AST/SGOT ([1]; Day 28, 0.8 mg/Kg) was 125 U/L. For the same compound, the Cholesterol ([1]; Day 28, 0.8 mg/Kg) was 240 mg/dL, the Creatine ([1]; Day 28, 0.8 mg/Kg) was 0.12 mg/dL and the HCT ([1]; Day 28, 0.8 mg/Kg) was 31.0%. It also gave an HDL ([1]; Day 28, 0.8 mg/Kg) of 128 mg/dL, an HGB ([1]; Day 28, 0.8 mg/Kg) of 11 g/dL and an LDL ([1]; Day 28, 0.8 mg/Kg) of 113 mg/dL. The MCHC ([1]; Day 28, 0.8 mg/Kg) was 34.0 g/dL, the MCV ([1]; Day 28, 0.8 mg/Kg) was 60.0 fL and the PLT ([1]; Day 28, 0.8 mg/Kg) was 1053 103/μl. For the same compound, the RBC ([1]; Day 28, 0.8 mg/Kg) was 5.1 106/μl, the Total protein ([1]; Day 28, 0.8 mg/Kg) was 6.1 g/dL and the Triglyceride ([1]; Day 28, 0.8 mg/Kg) was 132 mg/dL. The Urea ([1]; Day 28, 0.8 mg/Kg) was 50 mg/dL, the WBC ([1]; Day 28, 0.8 mg/Kg) was 5.6 103/μl and the “H&E skin histopathology finding” value ([2]; 0.08 mg/kg) was “Mild epidermal thickening with the increased number of hair follicles”. The hair follicle grade ([2]; 0.08 mg/kg) was “++++ (graded on a scale ranging from 0 to 4 (++++))”, the “H&E skin histopathology finding” value ([2]; 0.8 mg/kg) was “Mild epidermal thickening with the increased number of hair follicles” and the hair follicle grade ([2]; 0.8 mg/kg) was “++++ (graded on a scale ranging from 0 to 4 (++++))”. For the same compound, the “early onset of hair” value ([2]; topical) was 12 days, the “Weight of nude mice (NU/J Foxn1nu)” value ([3]; 0.8 mg/kg (first group), DAY 1) was 18.1 and 18.4 and 18.7 and 19.3 and 18.2 and the “Weight of nude mice (NU/J Foxn1nu)” value ([3]; 0.8 mg/kg (first group), DAY 7) was 20.1 and 20.5 (2×) and 19.3 and 19.8. The “Weight of nude mice (NU/J Foxn1nu)” value ([3]; 0.8 mg/kg (first group), DAY 14) was 21.8 and 22.3 and 22.4 and 21.1 and 21.4, the “Weight of nude mice (NU/J Foxn1nu)” value ([3]; 0.8 mg/kg (first group), DAY 21) was 23.7 and 23.9 and 24.1 and 23.1 and 23.3 and the “Weight of nude mice (NU/J Foxn1nu)” value ([3]; 0.8 mg/kg (first group), DAY 28) was 24.6 and 25.3 and 25.4 and 26.1 and 24.5. The “Weight of nude mice (NU/J Foxn1nu)” value ([3]; 0.8 mg/kg (second group so printed), DAY 1) was 18.4 and 18.5 (2×) and 18.9 and 19.3, the “Weight of nude mice (NU/J Foxn1nu)” value ([3]; 0.8 mg/kg (second group so printed), DAY 7) was 19.3 and 19.5 (2×) and 20.6 and 20.7 and the “Weight of nude mice (NU/J Foxn1nu)” value ([3]; 0.8 mg/kg (second group so printed), DAY 14) was 21.1 and 21.4 and 21.3 and 21.8 and 22.1. For the same compound, the “Weight of nude mice (NU/J Foxn1nu)” value ([3]; 0.8 mg/kg (second group so printed), DAY 21) was 22.6 and 22.9 and 23.4 (2×) and 23.8 and the “Weight of nude mice (NU/J Foxn1nu)” value ([3]; 0.8 mg/kg (second group so printed), DAY 28) was 24.8 and 25.1 and 25.3 and 25.4 and 26.1.
